Where two headings read alike, the source gives them in different places.
Assays:
[1] = test system: MEK phosphorylation (S218 and S222); test: Analysis of B-Raf-mediated MEK phosphorylation (Alphascreen SureFire Phospho-MEK); assay type: cell-based, human; conditions: 1 h, read-out: % Inhibition of MEK phosphorylation
Experimental: This assay was carried out with human melanoma cells. Cells were treated for 1 h with various concentrations of test compounds. MEK phosphorylation (S218 and S222) analysis was performed using the Alphascreen SureFire Phospho-MEK Kit (Perkin Elmer), by following the manufacturer's instructions. % inhibition of […] phosphorylation was determined as: 100−{(RFU test−RFU lysis buffer control)/(RFU vehicle treated control−RFU lysis buffer control)}×100.

[2] = test system: ERK phosphorylation; test: Analysis of ERK phosphorylation (Alphascreen SureFire Phospho-ERK 1/2); assay type: cell-based, human and mouse; conditions: read-out: Minimum concentration (nM) required for ≧80% inhibition of pERK
In short: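 Human melanoma and human and mouse colon cancer cells were exposed to compounds for 1 h. Phospho-ERK1/2 was read by AlphaScreen SureFire. Percent inhibition was calculated from RFU relative to vehicle-treated and lysis-buffer controls.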

[3] = 1 nM, human melanoma cells, read-out: % Inhibition of MBK phosphorylation
[4] = 10 nM, human melanoma cells, read-out: % Inhibition of MBK phosphorylation
[5] = 100 nM, human melanoma cells, read-out: % Inhibition of MBK phosphorylation
[6] = cells treated for 1 h, human melanoma cells, human and mouse colon cancer cells

Compound | inhibition at 0.001 µM ([1]; Homo sapiens) | inhibition at 0.01 µM ([1]; Homo sapiens) | inhibition at 0.1 µM ([1]; Homo sapiens) | IC80 ([2]; 1 h) | inhibition at 0.001 µM [1, 3] | inhibition at 0.01 µM [1, 4] | inhibition at 0.1 µM [1, 5] | IC80 [2, 6]
Cc1c(=O)n(C)c(Nc2ccc(I)cc2F)c2c(=O)[nH]c(=O)n(-c3cccc(C4(C(N)=O)CC4)c3)c12 [Compound 77, 1-(3-(5-((2-fluoro-4-iodophenyl)amino)-6,8-dimethyl-2,4,7-trioxo-3,4,6,7-tetra hydropyrido[4,3-d]pyrimidin-1(2H)-yl)phenyl)cyclopropanecarboxamide] | 49% | 67.8% | 85.5% | 0.1 to 0.9 nM |  |  |  | 
Cc1c(=O)n(C)c(Nc2ccc(I)cc2F)c2c(=O)n(C)c(=O)n(-c3cccc(OCC(N)=O)c3)c12 [Compound 57, 2-(3-(5-((2-fluoro-4-iodophenyl)amino)-3,6,8-trimethyl-2,4,7-trioxo-3,4,6,7-tetrahydropyrido[4,3-d]pyrimidin-1(2H)-yl)phenoxy)acetamide] |  |  |  |  | 63.3% | 76.4% | 83% | 1 to 3 nM
Cc1c(=O)n(C)c(Nc2ccc(I)cc2F)c2c(=O)n(C3CC3)c(=O)n(-c3cccc(C(=O)NC4CC4)c3)c12 [Compound 37, N-cyclopropyl-3-(3-cyclopropyl-5-((2-fluoro-4-iodophenyl)amino)-6,8-dimethyl-2,4,7-trioxo-3,4,6,7-tetrahydropyrido[4,3-d]pyrimidin-1(2H)-yl)benzamide] |  |  |  |  | 54.7% | 85.9% | 92.4% | 1 to 3 nM
Cc1c(=O)n(C)c(Nc2ccc(I)cc2F)c2c(=O)n(C3CC3)c(=O)n(-c3cccc(CC(=O)N(C)C)c3)c12 [Compound 29, 2-(3-(3-cyclopropyl-5-((2-fluoro-4-iodophenyl)amino)-6,8-dimethyl-2,4,7-trioxo-3,4,6,7-tetrahydropyrido[4,3-d]pyrimidin-1(2H)-yl)phenyl)-N,N-dimethylacetamide] |  |  |  |  | 52.9% | 72.9% | 76.4% | 0.1 to 0.9 nM
